Test results: patent US12605468B2, “Oxazine-based fluorophore compounds for nerve-specific imaging” (Oregon Health & Science University, priority 2020, dated 2026)

System: not listed separately
Test: Experimental LogD measurement (1-octanol / PBS buffer partition, absorbance readout)
Format: physicochemical
Conditions: pH 7.4, room temperature, read-out: Log D7.4
Experimental: Experimental LogD measurements. Each screening candidate was dissolved in DMSO at a concentration of 10 mM. The stock solution was sampled (2 μL) and added to a 1 mL mixture of 1-octanol and PBS buffer (equal volume). The solution was then vortexed for 30 mins at room temperature before centrifuged at 13,000 rpm for 5 minutes. The PBS buffer and 1-octanol layers were separated and measured for absorbance using a SpectraMax M5 spectrometer with a Microplate reader (Molecular Devices, Sunnyvale, CA). Sample concentration in each phase was then calculated using Beer's Law plots of absorbance versus concentration. The experimental LogD value for each screening candidates was calculated using the equation below.

Row | logD | SMILES
1 | 0.8 | CCN(CC)c1ccc2nc3ccc(=[N+]4CCC4)cc-3oc2c1 [LGW13-79, 1-(7-(diethylamino)-3H-phenoxazin-3-ylidene)azetidin-1-ium]
2 | 0.5 | c1cc2nc3ccc(=[N+]4CCC4)cc-3oc2cc1N1CCCC1 [LGW14-83, 1-(7-(pyrrolidin-1-yl)-3H-phenoxazin-3-ylidene)azetidin-1-ium]
3 | 0.1 | CN1CCOc2cc3nc4ccc(=[N+]5CCC5)cc-4oc3cc21 [LGW14-47, 1-(4-methyl-3,4-dihydro-[1,4]oxazino[2,3-b]phenoxazin-8(2H)-ylidene)azetidin-1-ium]
4 | 0.5 | CCN1CCOc2cc3nc4ccc(=[N+]5CCC5)cc-4oc3cc21 [LGW14-42, 1-(4-ethyl-3,4-dihydro-[1,4]oxazino[2,3-b]phenoxazin-8(2H)-ylidene)azetidin-1-ium]
5 | 0.5 | CC/[N+](C)=c1\ccc2nc3ccc(N4CCC4)cc3oc-2c1 [LGW14-51, (E)-N-(7-(azetidin-1-yl)-3H-phenoxazin-3-ylidene)-N-methylethanaminium]

Row | SMILES | logD
6 | c1cc2nc3ccc(=[N+]4CCC4)cc-3oc2cc1N1CCC1 [LGW14-53, 1-(7-(azetidin-1-yl)-3H-phenoxazin-3-ylidene)azetidin-1-ium] | 0.3

System: nerve
Test: not given
Conditions: Park et al. Theranostics 4, 823-833 (2014); cited from earlier work

Row | SMILES | nerve-specificity
7 | CC/N=c1/cc2oc3cc(NCC)c(C)cc3nc-2cc1C [Oxazine 4] | high nerve-specificity
